Residues, ends and D or L forms follow the SMILES beside them.
Key:
[1] = target: T1, platelet fibrinogen receptor (Homo sapiens, UniProt P05106+P08514); test: Inhibition of platelet-fibrinogen binding (125I-fibrinogen, ADP-stimulated washed platelets); conditions: 4×10^7 human platelets, 125I-fibrinogen 0.1×10^-6 M, ADP 5×10^-6 M, CaCl2 0.5 mM, 15 mn incubation
T1 construct: endogenous in cells; host or cells: washed human blood platelets, stimulated with ADP
Description: The platelets were isolated from 60 ml of human blood collected in the anticoagulant buffer ACD in a ratio of 1 volume of ACD to 6 volumes of blood.
The blood is then centrifuged for 20 mn at a 1,000 r/mn (JOUAN E 96 centrifuge) at room temperature.
The PRP (plasma rich in platelets) is decanted and treated with 0.1 μM PGE1, then centrifuged for 15 mn at 2,000 r/mn.
The platelets obtained in the pellet are then taken up in 1 ml of Tyrode buffer-albumin, pH 7.2, prepared with the following composition:
The platelets are washed on a column of Sepharose CL 2B using Tyrode buffer-albumin, pH 7.2, then the platelets are recovered and diluted to a concentration of 2×10^8 platelets/ml.
The assays are carried out on 4×10^7 platelets in the presence of CaCl2 (0.5 mM), ^125 I-fibrinogen 0.1×10^-6 M) and different concentrations of peptide, and the stimulation of the platelets is induced by ADP (5×10^-6 M). After incubation for 15 mn and deposition on a 15% saccharose solution the ^125 I-fibrinogen-plateletcomplex is isolated by centrifugation at 12,000 r/mn for 2 mn.
This table also presents the sequence of the peptides.

platelets = test: Inhibition of platelet aggregation (ADP-induced, washed platelets with fibrinogen); assay type: cell-based; conditions: isolated human platelets, ADP 5×10^-6 M, fibrinogen 1.1×10^-6 M
Description: The effect of the synthetic peptides on platelet aggregation was studied on platelets isolated as previously described for the study of the binding to fibrinogen. The stimulation of the platelets was also brought about by 5×10^-6 M ADP and the assay was carried out in the presence of 1.1×10^-6 M fibrinogen and of […] CaCl2.

T1 sequence (P08514 32-887 limits assumed): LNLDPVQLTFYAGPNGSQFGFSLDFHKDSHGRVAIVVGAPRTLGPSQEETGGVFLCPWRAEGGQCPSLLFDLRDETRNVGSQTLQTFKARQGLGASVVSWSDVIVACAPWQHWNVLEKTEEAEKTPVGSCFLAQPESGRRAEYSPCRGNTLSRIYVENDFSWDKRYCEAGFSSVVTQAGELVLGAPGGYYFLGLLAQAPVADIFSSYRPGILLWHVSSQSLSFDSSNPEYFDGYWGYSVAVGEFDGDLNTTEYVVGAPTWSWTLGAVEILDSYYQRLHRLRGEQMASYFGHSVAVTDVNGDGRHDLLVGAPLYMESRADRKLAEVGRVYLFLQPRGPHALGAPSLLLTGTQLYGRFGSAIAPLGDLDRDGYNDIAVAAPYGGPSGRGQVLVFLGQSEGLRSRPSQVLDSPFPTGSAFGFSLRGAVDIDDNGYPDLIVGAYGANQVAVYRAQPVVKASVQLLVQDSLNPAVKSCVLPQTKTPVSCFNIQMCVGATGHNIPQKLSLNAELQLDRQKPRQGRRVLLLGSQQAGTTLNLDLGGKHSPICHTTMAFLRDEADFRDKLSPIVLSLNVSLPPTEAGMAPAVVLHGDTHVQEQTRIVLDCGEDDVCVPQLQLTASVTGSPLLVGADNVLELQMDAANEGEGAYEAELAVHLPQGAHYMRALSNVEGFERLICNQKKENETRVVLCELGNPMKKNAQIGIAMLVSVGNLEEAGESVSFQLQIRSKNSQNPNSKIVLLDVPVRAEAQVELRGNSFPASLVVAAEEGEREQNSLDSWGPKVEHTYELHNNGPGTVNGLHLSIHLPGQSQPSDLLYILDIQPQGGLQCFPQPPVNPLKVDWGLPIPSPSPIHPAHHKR
T1 sequence (P08514 891-1039 partner limits assumed): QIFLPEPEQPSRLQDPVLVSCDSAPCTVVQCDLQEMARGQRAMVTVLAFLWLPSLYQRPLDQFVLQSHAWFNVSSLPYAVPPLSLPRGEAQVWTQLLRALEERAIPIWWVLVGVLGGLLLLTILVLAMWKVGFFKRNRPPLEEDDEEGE
T1 sequence (P05106 27-788): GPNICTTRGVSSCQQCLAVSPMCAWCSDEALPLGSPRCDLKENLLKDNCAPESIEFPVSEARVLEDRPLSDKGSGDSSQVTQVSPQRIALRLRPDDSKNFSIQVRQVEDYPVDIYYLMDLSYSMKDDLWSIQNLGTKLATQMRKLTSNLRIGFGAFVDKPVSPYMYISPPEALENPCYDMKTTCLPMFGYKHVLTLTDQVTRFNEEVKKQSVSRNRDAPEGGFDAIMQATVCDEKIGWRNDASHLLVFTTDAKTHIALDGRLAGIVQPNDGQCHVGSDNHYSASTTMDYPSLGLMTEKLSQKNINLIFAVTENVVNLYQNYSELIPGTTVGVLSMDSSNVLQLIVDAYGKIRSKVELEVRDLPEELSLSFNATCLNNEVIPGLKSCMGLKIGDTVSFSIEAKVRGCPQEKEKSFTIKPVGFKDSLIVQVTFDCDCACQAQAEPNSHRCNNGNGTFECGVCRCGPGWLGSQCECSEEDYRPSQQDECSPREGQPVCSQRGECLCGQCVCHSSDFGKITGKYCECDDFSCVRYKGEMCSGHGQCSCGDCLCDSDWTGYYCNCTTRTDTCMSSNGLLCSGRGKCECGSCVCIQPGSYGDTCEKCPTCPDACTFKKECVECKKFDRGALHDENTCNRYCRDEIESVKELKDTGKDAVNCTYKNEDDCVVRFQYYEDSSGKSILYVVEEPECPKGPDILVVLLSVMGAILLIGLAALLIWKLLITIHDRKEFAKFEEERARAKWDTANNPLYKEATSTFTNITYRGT

IC50 [1] | IC50 (platelets) | Compound
3.6 µM |  | NC(N)=NCCC[C@H](N)C(=O)NCC(=O)N[C@@H](CC(=O)O)C(=O)N[C@@H](Cc1c[nH]c2ccccc12)C(=O)O [RGDW, H-Arg-Gly-Asp-Trp-OH] (H-RGDW-OH)
 | 10 µM | N=C(N)NCCC[C@H](N)C(=O)NCC(=O)N[C@@H](CC(=O)O)C(=O)N[C@@H](Cc1c[nH]c2ccccc12)C(=O)O [RGDW, H-Arg-Gly-Asp-Trp-OH] (H-RGDW-OH)
7 µM | 15 µM | N=C(N)NCCC[C@H](N)C(=O)NCC(=O)N[C@@H](CC(=O)O)C(=O)N[C@@H](Cc1ccccc1)C(=O)O [RGDF, H-Arg-Gly-Asp-Phe-OH] (H-RGDF-OH)
20 µM | 20 µM | H-LRGDF-OH [LRGDF, H-Leu-Arg-Gly-Asp-Phe-OH]
